Experimental data published in patent US5614539A, “Urea compounds which are useful as platelet aggregation inhibitors” (G. D. Searle & Co., priority 1995, dated 1997).

Test system: Dog PRP (platelet aggregation)
Experiment: In-Vitro Platelet Aggregation in PRP (ADP-induced)
Format: cell-based
Details: Canis lupus familiaris; dog platelet-rich plasma; ADP 50 um final concentration; 1 minute preincubation at 37° C.; read-out: Dog PRP IC50 or % Inh.
Description: In-Vitro Platelet Aggregation in PRP
Healthy male or female dogs were fasted for 8 hours prior to drawing blood; then 30 ml whole blood was collected using a butterfly needle and 30 cc plastic syringe with 3 ml of 0.129M buffered sodium citrate (3.8%). The syringe was rotated carefully as blood was drawn to mix the citrate. Platelet-rich plasma (PRP) was prepared by centrifugation at 975×g for 3.17 minutes at room temperature allowing the centrifuge to coast to a stop without braking. The PRP was removed from the blood with a plastic pipette and placed in a plastic capped, 50 mL Corning conical sterile centrifuge tube which was held at room temperature. Platelet poor plasma (PPP) was prepared by centrifuging the remaining blood at 2000×g for 15 minutes at room temperature allowing the centrifuge to coast to a stop without braking. The PRP was adjusted with PPP to a count of 2-3×10^8 platelets per mL. 400 uL of the PRP preparation and 50 uL of the compounds solution to be tested or saline were preincubated for 1 minute at 37° C. in a […].). 50 uL of adenosine 5' diphosphate (ADP) (50 um final concentration) was added to the cuvettes and the aggregation was monitored for 1 minute. […] Results are calculated as follows: Percent of control=[(maximal OD minus initial OD of compound) divided by (maximal OD minus initial OD of control saline)]×100. […]

Row | Structure (SMILES) | IC50 [nM]
1 | N=C(N)NCCCCCCCNC(=O)NC(CC(=O)O)c1cccnc1 (stereo not drawn) [Example 2, β-[[[[7-[[aminoiminomethyl]amino]heptyl]amino]carbonyl]amino]-3-pyridinepropanoic acid] | 800
2 | N=C(N)NCCCCCCCNC(=O)N[C@@H](CC(=O)O)C(=O)N[C@@H](Cc1ccccc1)C(=O)O [Example 4, N-[N-[[[[7-[[aminoiminomethyl]amino]heptyl]amino]carbonyl]amino]-L-α-aspartyl]-L-phenylalanine] | 1900
